According to patent US20200306173A1, “LICORICE EXTRACT SYNERGY WITH MENTHOL FOR BREATH FRESHENING IN A CONFECTIONARY PRODUCT” (WM. WRIGLEY JR. COMPANY, priority 2017, published 2020):

Test system: salivary bacteria
Experiment: Hydrogen sulfide production by salivary bacteria in pooled saliva mixed with L-cysteine, headspace GC with sulfur detector
Format: cell-based, human
Settings: Example 2, FIG. 2; menthol alone at 4 mg/ml as compared to 2 mg/ml
Method: • 1. About 10-20 ml of saliva was obtained from human subjects and mixed together prior to use. • 2. L-cysteine was dissolved in deionized (D.I.) water to produce 0.5% of cysteine solution. • 3. About 2.5 ml of pooled saliva was mixed with 2.5 ml of cysteine solution in a 20 ml headspace vial. • 4. The amount of hydrogen sulfide generated by salivary bacteria was analyzed by a gas chromatography (GC) equipped with a sulfur detector. Pooled saliva (50% dilution) and L-cysteine (0.25% in D.I. water) were used as the negative controls.
• 1. For evaluation of the headspace concentration of volatile sulfur compounds (VSCs), a gas chromatograph (GC) equipped with a sulfur chemiluminescence detector (SCD) was used. • 2. Each run was completed within 10 minutes. • 3. The level of H2S was analyzed by the GC-SCD by direct injection of 0.25 ml of headspace volume with an automated sampler.
Levels of H2S concentrations [μg/mL] were measured by gas […]. Licorice extract powder (Glycyrrhiza glabra) and menthol were each evaluated individually and then in combination. Saliva with cysteine served as a control reference. Licorice extract powder was sampled individually at 10 mg/ml and 20 mg/ml in a saliva-cysteine mixture. Menthol at 2 mg/ml was sampled individually. Three combinations of licorice and menthol were sampled, varying the amount of licorice extract.

CC1CCC(C(C)C)C(O)C1 (stereo not shown) [menthol]
H2S production (peak gas chromatography area): slight decrease of H2S production in later time points
